This note sets out measurements from patent publication US11186577B2, “Vasopressin receptor antagonists and products and methods related thereto” (BlackThorn Therapeutics, Inc., priority 2017, dated 2021).

Data set [1] is described as follows: MDR1-MDCK effective efflux assay (Transwell, 10 μM, 1 hour), wild-type MDCK cells. It counts as in vitro ADME. To be noted: dog, MDCK, pH 7.4, Papp AB WT. Summed up:
(§1)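 Wild-type and MDR1-MDCK monolayers cultured 3 days were dosed with compound at 10 μM (0.1% DMSO) in HBSS/25 mM HEPES pH 7.4, in both A>B and B>A directions, for 1 h at 37 °C. Samples were quantified by LC-MS/MS to give Papp and efflux ratio. Effective efflux ratio = ER(MDR1-MDCK)/ER(wild-type); Lucifer Yellow checked monolayer integrity.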

For data set [2], the system named is wild-type (WT) MDCK cells. Described as above. It counts as in vitro ADME. To be noted: for WT ER: MDCK. The gist of the method: as §1
For the next data set, the system named is MDR1-MDCK cells. Put plainly: MDR1-MDCK effective efflux assay (Transwell, 10 μM, 1 hour), MDR1-MDCK cells. It counts as in vitro ADME. As to conditions: for MDR1 EER / MDR1 ER: MDCK-MDR1. The gist of the method:
as §1

The next data set has as its system MDR1 (P-glycoprotein). The description is as above. It counts as in vitro ADME. To be noted: dog, MDCK-MDR1, pH 7.4, Papp AB MDR1. The gist of the method:
as §1

The next data set has as its target V1a receptors (Rattus norvegicus (Rat), UniProt P30560). Put plainly: Arginine-Vasopressin (AVP) induced phospho-Erk measurement in rat choroid plexus (RCP) cells. It counts as cell-based. An excerpt: When V1a receptors are coupled to phospholipase C (PLC), they increase intracellular Ca2+ concentrations and protein kinase C (PKC) activity, and transactivate the mitogen-activated protein kinases/extracellular signal-regulated kinase (MAPK/Erk) and PI3 kinase/Akt pathways upon activation (Chen et al., J Neuroendocrinol. 2010). Rat choroid plexus (RCP) cell lines express functional V1a receptors measured by increased calcium concentrations in response to V1a receptor agonists (Battle et al., Biochem Biophys Res Comm 2000).
RCP P9(18) cells were seeded 30K/well, in 100 μl growth medium containing 10% FBS in polystyrene 96-well plates and incubated at 37° C., 5% CO2 and incubated overnight. The following day, the growth medium was replaced with 50 μl pre-warmed HBSS containing 20 mM HEPES and the cells were incubated at 37° C., 5% CO2 for 1.5 hrs. 1 mM AVP (Sigma V9879) was freshly prepared in distilled water in a glass vial, and diluted to 3× concentrations in HBSS containing 20 mM HEPES and 0.1% BSA in glass vials and kept on ice. Cells were treated with 25 μl 3× vehicle, 3× eBioscience Cell Stimulation Cocktail (Thermo Fisher Scientific 00-4970-93) or 3×AVP and incubated at 37° C., 5% CO2 for 5, 10 or 20 min. Final concentrations of AVP: 10, 100 or 1000 nM. Final concentrations of components in Cell Stimulation Cocktail: 81 nM PMA, 1.34 μM ionomycin, 0.2% ethanol. Cells were lysed with 25 μl 4×CST lysis buffer containing protease and phosphatase inhibitors, PMSF and SDS and then stored at −80° C., for 48 h. The lysates were thawed, centrifuged at 2000 g for 30 min at 4° C. and 40 μl supernatants assayed for pERK1/2 (Thr202/Tyr204; Thr185/Tyr187) and total ERK1/2 using MSD kit K15107D. The MSD ECL data for the lysates were corrected for no cell blanks, then phospho-protein levels expressed as a ratio to the total ERK1/2 level. The ratios were expressed as fold-change from the vehicle-treated control at each timepoint.

Another data set concerns MDR1 (P-gp). Put plainly: in vitro. As to conditions: dog, MDCK-MDR1.
The nature of a further data set: in vitro. To be noted: dog, MDCK.
In another data set the test system is CD-1 mice. Put plainly: Arginine-Vasopressin (AVP) induced behavior in mouse (i.c.v. AVP, scratching, digging, grooming). It counts as in vivo. To be noted: 100 mg/kg, po. As to the method:
Administration of Arginine-Vasopressin (AVP) intracerebroventricularly (i.c.v.) elicits characteristic scratching, digging and grooming behavior in mice that can be measured readily and is sensitive to blockade with vasopressin antagonists (Meisenberg, 1988; Bleickart et al., 2009).
Male CD-1 mice (Charles River Germany) weighing 22-25 g upon the study in-life are used for this study. Animals are housed in groups of 4-5 per cage in standard temperature (22±1° C.) and light-controlled environment (lights on from 7 am to […]), with ad libitum access to food and water. Prior to commencing any procedures to the mice, they are allowed to habituate in the vivarium for a minimum of 7 days.
Anesthesia is induced in a plexiglass chamber for 2-3 min with 5% isoflurane, and maintained through a snout mask with 1-2% isoflurane thereafter. A homeothermic blanket system with a rectal probe is used to monitor and maintain the animal's body temperature at 37.0° C.±1.5° C. during the operation. […] The actual coordinates are calculated by the distance from the point in midline between the eyes and no skin incision is made. […]
Mice are observed and video-recorded for 15 minutes following AVP/saline administration and behaviors are measured (in seconds) and a cumulative time is calculated. […]

Setting [3] is: second study, read-out: IC50, AVP induced pERK1/2 to total ERK1/2.
Setting [4] is: study 1, read-out: IC50, AVP induced pERK1/2 to total ERK1/2.

Like-named read-outs stand apart in the source and are kept apart here.

What is called Papp A→B is how fast a substance crosses the layer from the apical side. A low value points to poor permeation.

Sequence of V1a receptors (P30560 whole entry): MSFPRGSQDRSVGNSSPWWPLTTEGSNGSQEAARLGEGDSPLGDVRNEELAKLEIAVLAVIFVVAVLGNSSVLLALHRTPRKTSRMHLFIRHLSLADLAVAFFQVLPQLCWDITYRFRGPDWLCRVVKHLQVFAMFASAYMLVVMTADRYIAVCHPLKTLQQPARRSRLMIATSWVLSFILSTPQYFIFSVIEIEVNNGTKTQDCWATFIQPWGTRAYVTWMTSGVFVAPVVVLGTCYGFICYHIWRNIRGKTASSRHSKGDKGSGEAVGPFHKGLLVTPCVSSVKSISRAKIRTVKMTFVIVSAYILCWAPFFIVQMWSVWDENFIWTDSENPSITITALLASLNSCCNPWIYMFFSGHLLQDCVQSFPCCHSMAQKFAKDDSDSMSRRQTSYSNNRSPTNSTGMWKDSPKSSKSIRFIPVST

In turn, `CC1c2nnc(C3CC4(C3)CN(c3ncc(F)cn3)C4)n2-c2ccc(Cl)cc2CN1C(=O)OC(CF)CF` (stereo not drawn) [compound 194] had a Papp A→B at 1 h, 10 μM in data set [1] of 10 to 20 ×10⁻⁶ cm/s. Further, in data set [2], the “WT ER” value is “++++”. In the data set with MDR1-MDCK cells, the “MDR1 EER” value is “+” and the “MDR1 ER” value is “+”. For the same molecule, the apical-to-basolateral permeability (Papp A→B) at 1 h, 10 μM in the data set on MDR1 (P-glycoprotein) is 10 to 20 ×10⁻⁶ cm/s.

In the case of `CC(C)C(=O)N1Cc2cc(Cl)ccc2-n2c(nnc2C2CC3(C2)CN(c2ccccn2)C3)C1` [compound 71], the Papp A→B at 1 h, 10 μM in data set [1] was above 20 ×10⁻⁶ cm/s. Further, the “WT ER” value in data set [2] was “++++”. Moreover, in the data set on MDR1-MDCK cells, the “MDR1 EER” value is “+” and the “MDR1 ER” value is “+”. The molecule further had an apparent permeability from apical to basolateral (Papp A→B) at 1 h, 10 μM in the data set on MDR1 (P-glycoprotein) below 7 ×10⁻⁶ cm/s.

`CC1c2nnc(C3CC4(C3)CN(c3ncccn3)C4)n2-c2ccc(Cl)cc2CN1C(=O)OC1CC1` (stereo not drawn) [compound 171] yielded a Papp A→B at 1 h, 10 μM in data set [1] above 20 ×10⁻⁶ cm/s. In addition, the “WT ER” value in data set [2] was “++++”. Moreover, in the data set with MDR1-MDCK cells, the “MDR1 EER” value is given as “+” and the “MDR1 ER” value is on record as “+”. Moreover, the Papp A→B at 1 h, 10 μM in the data set on MDR1 (P-glycoprotein) is 10 to 20 ×10⁻⁶ cm/s.

For `COC(=O)N1Cc2cc(Cl)ccc2-n2c(C3CC4(C3)CN(c3ccc(F)cn3)C4)nnc2C1C` (single isomer, unassigned) [142A], the “Papp AB WT” value in data set [2] (wild-type MDCK cells, apical to basolateral (A>B), 10 μM, 1 hour) is given as “++++ ((++++) denotes >20 (10^-6 cm/sec))”. The figures for the IC50 at V1a receptors (setting [3]) and on V1a receptors (setting [4]) were 20 nM and 16 nM, respectively. Moreover, in the data set with MDR1-MDCK cells (MDR1-MDCK cells, apical to basolateral (A>B), 10 μM, 1 hour), the “Papp AB MDR1” value is listed as “++++ ((++++) denotes >20 (10^-6 cm/sec))”.

`CN1Cc2cc(Cl)ccc2-n2c(nnc2C2CC3(C2)CN(c2ccc(F)cn2)C3)C1` [compound 1, 8-chloro-1-(2-(5-fluoropyridin-2-yl)-2-azaspiro[3.3]heptan-6-yl)-5-methyl-5,6-dihydro-4H-benzo[f][1,2,4]triazolo[4,3-a][1,4]diazepine] displayed a Papp A→B at 1 h, 10 μM in data set [1] above 20 ×10⁻⁶ cm/s. Further, the “WT ER” value in data set [2] is reported as “++”. Also, in the data set on MDR1-MDCK cells, the “MDR1 EER” value was “+” and the “MDR1 ER” value was “+”. The Papp A→B at 1 h, 10 μM in the data set with MDR1 (P-glycoprotein) fell in the range of 7 to 10 ×10⁻⁶ cm/s.

The molecule `O=C(N1Cc2cc(Cl)ccc2-n2c(nnc2C2CC3(C2)CN(c2cnccn2)C3)C1)C1(F)CC1` [compound 81] registered an apical-to-basolateral permeability (Papp A→B) at 1 h, 10 μM in data set [1] above 20 ×10⁻⁶ cm/s. The “WT ER” value in data set [2] is “+++”. Further, in the data set with MDR1-MDCK cells, the “MDR1 EER” value was “+” and the “MDR1 ER” value was “+”. Also, the apparent permeability from apical to basolateral (Papp A→B) at 1 h, 10 μM with MDR1 (P-glycoprotein) is 7 to 10 ×10⁻⁶ cm/s.

With `CCC(=O)N1Cc2cc(Cl)ccc2-n2c(nnc2C2CC3(C2)CN(c2ccccn2)C3)C1` [compound 67], the apparent permeability from apical to basolateral (Papp A→B) at 1 h, 10 μM in data set [1] is above 20 ×10⁻⁶ cm/s. For the same molecule, the “WT ER” value in data set [2] was “+++”. Also, in the data set on MDR1-MDCK cells, the “MDR1 EER” value was “+” and the “MDR1 ER” value is reported as “+”. The molecule also had a Papp A→B at 1 h, 10 μM with MDR1 (P-glycoprotein) below 7 ×10⁻⁶ cm/s.

Molecule `COC(=O)N1Cc2cc(Cl)ccc2-n2c(C3CC4(C3)CN(c3ncc(F)cn3)C4)nnc2C1C` (stereo not drawn) [compound 170] came in with a Papp A→B at 1 h, 10 μM in data set [1] above 20 ×10⁻⁶ cm/s. Besides, the “WT ER” value in data set [2] is “++++”. For the same molecule, in the data set with MDR1-MDCK cells, the “MDR1 EER” value is listed as “+” and the “MDR1 ER” value is “+”. The molecule also registered an apical-to-basolateral permeability (Papp A→B) at 1 h, 10 μM with MDR1 (P-glycoprotein) of 10 to 20 ×10⁻⁶ cm/s.

For the molecule `Clc1ccc2c(c1)CN(C1COC1)Cc1nnc(C3CC4(C3)CN(c3ccccn3)C4)n1-2` [compound 57, 8-chloro-5-(oxetan-3-yl)-1-(2-(pyridin-2-yl)-2-azaspiro[3.3]heptan-6-yl)-5,6-dihydro-4H-benzo[f][1,2,4]triazolo[4,3-a][1,4]diazepine], the apparent permeability from apical to basolateral (Papp A→B) at 1 h, 10 μM in data set [1] was above 20 ×10⁻⁶ cm/s; with MDR1 (P-glycoprotein) it was below 7 ×10⁻⁶ cm/s. Besides, in data set [2], the “WT ER” value was “+++”. For the same molecule, the “MDR1 EER” value in the data set with MDR1-MDCK cells was “+”. The “MDR1 ER” value with MDR1-MDCK cells was “+”.

In data set [1], `O=C(C1CC1)N1CC2(CC(c3nnc4n3-c3ccc(Cl)cc3CN(C(=O)C3(F)CC3)C4)C2)C1` [compound 136] showed a Papp A→B at 1 h, 10 μM of 10 to 20 ×10⁻⁶ cm/s. In addition, the “WT ER” value in data set [2] is “+”. Also, in the data set on MDR1-MDCK cells, the “MDR1 EER” value is recorded as “+” and the “MDR1 ER” value is on record as “+”. Further, the Papp A→B at 1 h, 10 μM in the data set on MDR1 (P-glycoprotein) was below 7 ×10⁻⁶ cm/s.

For `CCOC(=O)N1Cc2cc(Cl)ccc2-n2c(C3CC4(C3)CN(c3ncccn3)C4)nnc2C1C` (stereo not drawn) [compound 168], the apparent permeability from apical to basolateral (Papp A→B) at 1 h, 10 μM in data set [1] was above 20 ×10⁻⁶ cm/s; with MDR1 (P-glycoprotein) it was 7 to 10 ×10⁻⁶ cm/s. Also, the “WT ER” value in data set [2] is on record as “+++”. In addition, the “MDR1 EER” value with MDR1-MDCK cells is on record as “+”. The “MDR1 ER” value with MDR1-MDCK cells is “+”.

Consider `CN1Cc2cc(Cl)ccc2-n2c(nnc2[C@H]2CC[C@H](Oc3ccccn3)CC2)C1` [balovaptan, reference compound], for which the results for the IC50 on V1a receptors (setting [3]) and at V1a receptors (setting [4]) were 56.7 nM and 85.6 nM, respectively. For the same molecule, the Papp A→B at 2 h with MDR1 (P-gp) was above 20 ×10⁻⁶ cm/s; in the data set “in vitro”, 10 to 20 ×10⁻⁶ cm/s. The “antagonist activity to AVP-induced scratching behaviors” value with CD-1 mice is given as “effective”.

On to `COC(=O)N1Cc2cc(Cl)ccc2-n2c(C3CC4(C3)CN(c3ncccn3)C4)nnc2C1C` (stereo not drawn) [compound 166], for which the Papp A→B at 1 h, 10 μM in data set [1] was above 20 ×10⁻⁶ cm/s. The “WT ER” value in data set [2] is given as “+++”. Moreover, in the data set on MDR1-MDCK cells, the “MDR1 EER” value is reported as “+” and the “MDR1 ER” value is recorded as “+”. Besides, the apparent permeability from apical to basolateral (Papp A→B) at 1 h, 10 μM with MDR1 (P-glycoprotein) was below 7 ×10⁻⁶ cm/s.

With `CC(C)OC(=O)N1Cc2cc(Cl)ccc2-n2c(C3CC4(C3)CN(c3ncccn3)C4)nnc2C1C` (stereo not drawn) [compound 167], the Papp A→B at 1 h, 10 μM in data set [1] is above 20 ×10⁻⁶ cm/s. The “WT ER” value in data set [2] is listed as “+++”. Also, in the data set on MDR1-MDCK cells, the “MDR1 EER” value is recorded as “+++” and the “MDR1 ER” value is reported as “+++”. Further, the Papp A→B at 1 h, 10 μM in the data set on MDR1 (P-glycoprotein) is above 20 ×10⁻⁶ cm/s.
